Data: patent US20210253651A1, “METHOD FOR PRODUCING ORGANIC COMPOUND-ENCAPSULATING FERRITIN” (Ajinomoto Co., Inc., priority 2018, published 2021)
Counter-ions that a name gives are not always drawn. Like-named read-outs stand apart in the source and are kept apart here.

Columns and labels:
FTH ferritin = target: T1, FTH ferritin (Homo sapiens, UniProt P02794); assay: disassembly-reassembly process incorporation of DOX into FTH ferritin; format: physicochemical; conditions: standing 15 minutes, DOX 0.2 mg/L
T1 construct: made in house; host or cells: Escherichia coli BL21 (DE3), plasmid pET20-FTH
Description: Then, 10 μL of 1M Tris-HCl buffer (pH 9.0) was added for neutralization, and the resulting solution was left to stand for 5 to 120 minutes at room temperature. After the standing, 0.5 mL of water was added to the resulting solution. After the resulting solution was centrifuged (at 15,000 rpm for one minute), the supernatant was injected into the desalting column PD-10 (Sephadex G-25 filled product, GE Healthcare Inc.) equilibrated with 10 mM Tris-HCl buffer (pH 8) to separate the protein from a reagent that was not encapsulated. Whole amount (3.5 mL) of the resulting solution was concentrated to 0.1 mL by centrifugal ultrafiltration using Vivaspin 20-100K (GE Healthcare Inc.), and then the absorbances at 280 nm and 480 nm were measured using spectrophotometer (DU-800, Beckman Coulter Inc.).

FTH-BC-TBP ferritin = assay: one-step incorporation of DOX into mutant ferritin FTH-BC-TBP; format: physicochemical, human; conditions: pH 8, 50° C., 60 minutes, DOX 0.3 mg/L
Description: Total synthesis was carried out for a DNA encoding a human-derived ferritin H chain (FTH-BC-TBP) monomer in which a titanium recognizing peptide (minTBP1: RKLPDA (SEQ ID NO: 7)) was inserted for fusion at a flexible linker region between second and third α-helices counted from an N-terminus of a ferritin monomer comprising six α-helices. PCR was carried out using the synthesized DNA as a template as well as the following primers: 5′-[…]-3′ (SEQ ID NO: 8) and 5′-[…]-3′ (SEQ ID NO: 9). PCR was carried out using pET20 (Merck KGaA) as a template as well as the following primers: 5′-[…]-3′ (SEQ ID NO: 10) and 5′-[…]-3′ (SEQ ID NO: 11). […]
(§1) DOX was mixed with 1 mL of 50 mM Tris-HCl buffer (pH 8) that contains each mutate ferritin at a final concentration of 1 mg/mL, to achieve a final concentration of 0.3 mg/L, and then the resulting solutions were left to stand at 50° C. for 60 minutes. […] The concentration of contained protein was determined using the protein assay CBB solution (Nacalai Tesque, Inc.) as well as bovine albumin as a standard. The DOX concentration was determined based on analysis of the absorbance at 480 nm.

FTHc ferritin = target: T2, FTHc ferritin (Homo sapiens, UniProt P02794); assay: one-step incorporation of DOX into mutant ferritin FTHc; format: physicochemical; conditions: pH 8, 50° C., 60 minutes, DOX 0.3 mg/L
T2 construct: pET20-FTH carrying a DNA encoding a human-derived ferritin H chain monomer as a template; single cysteine residue (C) appended; made in house; host or cells: Escherichia coli BL21 (DE3), plasmid pET20-FTHc
Description: PCR was carried out using pET20-FTH carrying a DNA encoding a human-derived ferritin H chain monomer as a template as well as the following primers: 5′-[…]-3′ (SEQ ID NO: 12) and 5′-[…]-3′ (SEQ ID NO: 13). The resulting PCR products were purified using Wizard DNA Clean-Up System (Promega Corporation), and then treated with restriction enzymes, Dpnl and BamHI (Takara Bio Inc.) for self-ligation in order to construct an expression plasmid (pET20-FTHc) carrying a gene encoding FTHc monomer with a cysteine added to the C-terminus. Ferritin including FTHc monomers is referred to as FTHc ferritin, as appropriate.
as §1, with “minutes. After the standing and centrifuging (at 15,000 rpm for one minute), the supernatant was injected into the desalting column PD-10 (Sephadex G-25 filled product, GE Healthcare Inc.) equilibrated with 10 mM Tris-HCl buffer (pH 8) to separate the protein from a reagent that was not encapsulated.” for “minutes.”

FTH-U2AF ferritin = target: T3, FTH-U2AF ferritin (Homo sapiens, UniProt P02794); assay: one-step incorporation of DOX into FTH-U2AF ferritin; format: physicochemical; conditions: pH 9, 50° C., 60 minutes, DOX 0.3 mg/L
T3 construct: pET20-FTH carrying a DNA encoding a human-derived ferritin H chain monomer as a template; made in house; host or cells: Escherichia coli BL21 (DE3), plasmid pET20-FTH-U2AF
Description: PCR was carried out using pET20-FTH carrying a DNA encoding a human-derived ferritin H chain monomer as a template as well as the following primers: 5′-[…]-3′ (SEQ ID NO: 18) and 5′-[…]-3′ (SEQ ID NO: 13), in order to obtain a DNA encoding the human-derived ferritin H chain (FTH-U2AF) in which an RNA recognition peptide (U2AF: TRQARR (SEQ ID NO: 17) R Tan and AD Frankel, Proc Natl Acad Sci USA 92, 5282-5286. (1995) which in incorporated herein by reference in its entirety)) is inserted and fused at the C-terminus of the ferritin monomer. The resulting PCR products were purified using Wizard DNA Clean-Up System (Promega Corporation), and then treated with restriction enzymes, DpnI and NdeI (Takara Bio Inc.) for self-ligation in order to construct an expression plasmid (pET20-FTH-U2AF) carrying a gene encoding FTH-U2AF monomer. […]
DOX was mixed with 1 mL of 50 mM Tris-HCl buffer (pH 9) that contains each mutate ferritin at a final concentration of 1 mg/mL, to achieve a final concentration of 0.3 mg/L, and then the resulting solutions were left to stand at 50° C. for 60 minutes. […] The concentration of contained protein was determined using the protein assay CBB solution (Nacalai Tesque, Inc.) as well as bovine albumin as a standard. The DOX concentration was determined based on analysis of the absorbance at 480 nm.

[1] = cited from earlier work

T3 sequence (P02794 with tags, fused parts or gaps): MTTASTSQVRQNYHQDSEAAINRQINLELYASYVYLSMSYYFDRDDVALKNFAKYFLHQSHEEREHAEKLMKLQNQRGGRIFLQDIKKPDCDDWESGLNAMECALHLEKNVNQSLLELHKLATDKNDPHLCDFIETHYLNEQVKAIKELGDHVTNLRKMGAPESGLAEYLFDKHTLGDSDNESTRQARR
T1 sequence (P02794 whole entry): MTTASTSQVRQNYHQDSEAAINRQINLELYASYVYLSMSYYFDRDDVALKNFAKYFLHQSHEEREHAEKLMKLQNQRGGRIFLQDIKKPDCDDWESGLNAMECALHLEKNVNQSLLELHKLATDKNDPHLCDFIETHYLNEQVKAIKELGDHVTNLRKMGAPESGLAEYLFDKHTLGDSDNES
T2 sequence (P02794 with tags, fused parts or gaps): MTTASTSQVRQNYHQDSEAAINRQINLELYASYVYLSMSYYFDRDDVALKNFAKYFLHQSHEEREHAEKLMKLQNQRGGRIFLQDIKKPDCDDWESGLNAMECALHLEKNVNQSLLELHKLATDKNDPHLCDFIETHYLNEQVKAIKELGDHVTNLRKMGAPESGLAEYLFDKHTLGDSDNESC

COc1cccc2c1C(=O)c1c(O)c3c(c(O)c1C2=O)C[C@@](O)(C(=O)CO)C[C@@H]3OC1CC(N)C(O)C(C)O1 (stereo partly shown) [DOX, Doxorubicin hydrochloride]
highest incorporation efficiency of the reagent (FTH ferritin): 2 % (wt)
incorporation efficiency of the reagent (FTH-BC-TBP ferritin): 6.5 % (wt)
incorporation efficiency of the reagent (FTHc ferritin): 8.6 % (wt)
incorporation efficiency of the reagent (FTH-U2AF ferritin): 17.9 % (wt)
pKa ([1]; second pKa value): 8.46
pKa ([1]; single or first pKa value): 7.34
pKa ([1]; third printed pKa value): 9.46
